{"source": "patent US9732104B2", "about": "“Ether compounds for treatment of complement mediated disorders” (Achillion Pharmaceuticals, Inc., priority 2014, dated 2017)", "target": "Human factor D (Homo sapiens (Human), UniProt P00746)", "sequence (P00746 26-253)": "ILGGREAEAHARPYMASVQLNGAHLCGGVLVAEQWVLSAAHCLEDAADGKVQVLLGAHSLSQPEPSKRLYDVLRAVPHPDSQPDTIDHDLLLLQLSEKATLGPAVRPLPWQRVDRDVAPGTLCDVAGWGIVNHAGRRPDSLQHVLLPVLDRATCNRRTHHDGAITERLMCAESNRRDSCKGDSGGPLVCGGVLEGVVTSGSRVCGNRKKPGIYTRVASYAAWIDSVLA", "experiment": "Human Factor D Assay", "assay_type": "biochemical", "details": "Human factor D purified from human serum, 80 nM; substrate Z-L-Lys-SBzl with DTNB; assay of Example 8", "experimental": "The assay of Example 8 was used to determine the IC50's of the compounds. Other standard factor D inhibition assays are also available.\nExample 8. Human Factor D Assay\nHuman factor D (purified from human serum, Complement Technology, Inc.) at 80 nM final concentration is incubated with test compound at various concentrations for 5 minutes at room temperature in 50 mM Tris, 1M NaCl, pH 7.5. A synthetic substrate Z-L-Lys-SBzl and DTNB (Ellman's reagent) are added to final concentrations of 100 µM each. The increase in color is recorded at OD405 nm in a microplate in kinetic mode over 30 minutes with 30 second time points in a […]. IC50 values are calculated by non-linear regression from the percentage of inhibition of complement factor D activity as a function of test compound concentration."}
{"compound": "CCOP(=O)(COc1ccc2c(C(C)=O)cn(CC(=O)N3C[C@H](F)C[C@H]3C(=O)N[C@H](C)c3cccc(Cl)c3F)c2c1)OCC", "note": "[Compound 18, diethyl (3-acetyl-1-(2-((2S,4R)-2-((R)-1-(3-chloro-2-fluorophen-yl)ethylcarbamoyl)-4-fluoropyrrolidin-1-yl)-2-oxoethyl)-1H-indol-6-yloxy)methylphosphonate]", "values": [{"measurement": "IC50", "value": "< 1", "unit": "µM"}]}
{"compound": "CC(=O)c1cn(CC(=O)N2C[C@H](F)C[C@H]2C(=O)NCc2cccc(Cl)c2F)c2cc(OCS(=O)(=O)NC(C)(C)C)ccc12", "note": "[Compound 15, (2S,4R)-1-(2-(3-acetyl-6-(N-tert-butylsulfamoylmethoxy)-1H-indol-1-yl)acetyl)-N-(3-chloro-2-fluorobenzyl)-4-fluoropyrrolidine-2-carboxamide]", "values": [{"measurement": "IC50", "value": "< 1", "unit": "µM"}]}
{"compound": "CCOP(=O)(COc1ccc2c(c1)c(C(C)=O)cn2CC(=O)N1C[C@H](F)C[C@H]1C(=O)NCc1cccc(Cl)c1F)OCC", "note": "[Compound 10, diethyl (3-acetyl-1-(2-((2S,4R)-2-(3-chloro-2-fluorobenzylcarbamoyl)-4-fluoropyrrolidin-1-yl)-2-oxoethyl)-1H-indol-5-yloxy)methylphosphonate]", "values": [{"measurement": "IC50", "value": "< 1", "unit": "µM"}]}
{"compound": "CC(=O)c1cn(CC(=O)N2C[C@H](F)C[C@H]2C(=O)Nc2cccc(-c3ccccc3Cl)c2F)c2ccc(Oc3ncc(F)cn3)cc12", "note": "[Compound 37, (2S,4R)-1-(2-(3-acetyl-5-(5-fluoropyrimidin-2-yloxy)-1H-indol-1-yl)acetyl)-N-(2′-chloro-2-fluorobiphenyl-3-yl)-4-fluoropyrrolidine-2-carboxamide]", "values": [{"measurement": "IC50", "value": "< 1", "unit": "µM"}]}
{"compound": "CC(C)(C)NS(=O)(=O)COc1ccc2c(C(N)=O)nn(CC(=O)N3C[C@H](F)C[C@H]3C(=O)Nc3cccc(-c4ccccc4Cl)c3F)c2c1", "note": "[Compound 28, 6-(N-tert-butylsulfamoylmethoxy)-1-(2-((2S,4R)-2-(2′-chloro-2-fluorobiphenyl-3-ylcarbamoyl)-4-fluoropyrrolidin-1-yl)-2-oxoethyl)-1H-indazole-3-carboxamide]", "values": [{"measurement": "IC50", "value": "< 1", "unit": "µM"}]}
{"compound": "NC(=O)c1nn(CC(=O)N2C[C@H](F)C[C@H]2C(=O)Nc2cccc(-c3ccccc3Cl)c2F)c2ccc(Oc3cncnc3)cc12", "note": "[Compound 31, 1-(2-((2S,4R)-2-(2′-chloro-2-fluorobiphenyl-3-ylcarbamoyl)-4-fluoropyrrolidin-1-yl)-2-oxoethyl)-5-(pyrimidin-5-yloxy)-1H-indazole-3-carboxamide]", "values": [{"measurement": "IC50", "value": "< 1", "unit": "µM"}]}
{"compound": "CC(=O)c1cn(CC(=O)N2C[C@H](F)C[C@H]2C(=O)Nc2cccc(-c3ccccc3Cl)c2F)c2ccc(Oc3ncc(C)cn3)cc12", "note": "[Compound 40, (2S,4R)-1-(2-(3-acetyl-5-(5-methylpyrimidin-2-yloxy)-1H-indol-1-yl)acetyl)-N-(2′-chloro-2-fluorobiphenyl-3-yl)-4-fluoropyrrolidine-2-carboxamide]", "values": [{"measurement": "IC50", "value": "< 1", "unit": "µM"}]}
{"compound": "CC(=O)c1cn(CC(=O)N2C[C@H](F)C[C@H]2C(=O)Nc2cccc(OC(F)(F)F)c2F)c2cc(OCC3CC3)ccc12", "note": "[Compound 4, (2S,4R)-1-(2-(3-acetyl-6-(cyclopropylmethoxy)-1H-indol-1-yl)acetyl)-4-fluoro-N-(2-fluoro-3-(trifluoromethoxy)phen-yl)pyrrolidine-2-carboxamide]", "values": [{"measurement": "IC50", "value": "< 1", "unit": "µM"}]}
{"compound": "CC(=O)c1cn(CC(=O)N2C[C@H](F)C[C@H]2C(=O)NCc2cccc(Cl)c2F)c2cc(OCCC3CC3)ccc12", "note": "[Compound 5, (2S,4R)-1-(2-(3-acetyl-6-(2-cyclopropylethoxy)-1H-indol-1-yl)acetyl)-N-(3-chloro-2-fluorobenzyl)-4-fluoropyrrolidine-2-carboxamide]", "values": [{"measurement": "IC50", "value": "< 1", "unit": "µM"}]}
{"compound": "CC(=O)c1cn(CC(=O)N2C[C@H](F)C[C@H]2C(=O)Nc2cccc(Br)n2)c2ccc(Oc3ncccn3)cc12", "note": "[Compound 39, (2S,4R)-1-(2-(3-acetyl-5-(pyrimidin-2-yloxy)-1H-indol-1-yl)acetyl)-N-(6-bromopyridin-2-yl)-4-fluoropyrrolidine-2-carboxamide]", "values": [{"measurement": "IC50", "value": "< 1", "unit": "µM"}]}
{"compound": "CCC(=O)OC(OP(=O)(COc1ccc2c(C(C)=O)cn(CC(=O)N3C[C@H](F)C[C@H]3C(=O)NCc3cccc(Cl)c3F)c2c1)OC(OC(=O)CC)C(C)C)C(C)C", "note": "(stereo partly drawn) [Compound 23, 1,1′-(((3-acetyl-1-(2-((2S,4R)-2-(3-chloro-2-fluorobenzylcarbamoyl)-4-fluoropyrrolidin-1-yl)-2-oxoethyl)-1H-indol-6-yloxy)methyl)phosph-oryl)bis(oxy)bis(2-methylpropane-1,1-diyl) dipropionate]", "values": [{"measurement": "IC50", "value": "< 1", "unit": "µM"}]}
{"compound": "CC(=O)c1cn(CC(=O)N2C[C@H](F)C[C@H]2C(=O)Nc2cccc(-c3ccccc3Cl)c2F)c2ccc(Oc3ncc(Br)cn3)cc12", "note": "[Compound 33, (2S,4R)-1-(2-(3-acetyl-5-(5-bromopyrimidin-2-yloxy)-1H-indol-1-yl)acetyl)-N-(2′-chloro-2-fluorobiphenyl-3-yl)-4-fluoropyrrolidine-2-carboxamide]", "values": [{"measurement": "IC50", "value": "< 1", "unit": "µM"}]}
{"compound": "CC(=O)c1cn(CC(=O)N2C[C@H](F)C[C@H]2C(=O)Nc2cccc(Br)n2)c2ccc(Oc3ncc(C)cn3)cc12", "note": "[Compound 41, (2S,4R)-1-(2-(3-acetyl-5-(5-methylpyrimidin-2-yloxy)-1H-indol-1-yl)acetyl)-N-(6-bromopyridin-2-yl)-4-fluoropyrrolidine-2-carboxamide]", "values": [{"measurement": "IC50", "value": "< 1", "unit": "µM"}]}
{"compound": "CC(=O)c1cn(CC(=O)N2C[C@H](F)C[C@H]2C(=O)Nc2cccc(OC(F)(F)F)c2F)c2cc(OCP(=O)(O)O)ccc12", "note": "[Compound 27, (3-acetyl-1-(2-((2S,4R)-4-fluoro-2-(2-fluoro-3-(trifluoromethoxy)phenyl-carbamoyl)pyrrolidin-1-yl)-2-oxoethyl)-1H-indol-6-yloxy)methylphosphonic acid]", "values": [{"measurement": "IC50", "value": "< 1", "unit": "µM"}]}
{"compound": "CC(=O)c1cn(CC(=O)N2C[C@H](F)C[C@H]2C(=O)Nc2ccc(OC(F)(F)F)c(F)c2)c2cc(OCP(=O)(O)O)ccc12", "note": "[Compound 25, (3-acetyl-1-(2-((2S,4R)-4-fluoro-2-(3-fluoro-4-(trifluoromethoxy)phen-ylcarbamoyl)pyrrolidin-1-yl)-2-oxoethyl)-1H-indol-6-yloxy)methylphosphonic acid]", "values": [{"measurement": "IC50", "value": "< 1", "unit": "µM"}]}
{"compound": "CC(=O)c1cn(CC(=O)N2C[C@H](F)C[C@H]2C(=O)NCc2cccc(Cl)c2F)c2ccc(OS(=O)(=O)C(F)(F)F)cc12", "note": "[Compound 9, 3-acetyl-1-(2-((2S,4R)-2-(3-chloro-2-fluorobenzylcarbamoyl)-4-fluoropyrrolidin-1-yl)-2-oxoethyl)-1H-indol-5-yl trifluoromethanesulfonate]", "values": [{"measurement": "IC50", "value": "< 1", "unit": "µM"}]}
